According to paper PMC11040352, “CD38‐Specific Gallium‐68 Labeled Peptide Radiotracer Enables Pharmacodynamic Monitoring in Multiple Myeloma with PET” (Advanced Science, 2024):

Assays:
[1] = tested on: MOLP8 tumor xenografts; assay: Ex vivo biodistribution in mice with MOLP8 tumor xenografts; parameters: species or system NSG mice; details: MOLP8 xenograft mice
Procedure: (§1) Animal studies were performed under Johns Hopkins University Animal Care and Use Committee (ACUC‐approved protocol (Principal investigator: Sridhar Nimmagadda, Ph.D. and Protocol number M021M175). Male and female NSG mice (5‐6 weeks old) were used to establish xenografts by administering 3 million cells (50% Corning Matrigel) subcutaneously to form various tumor models within 3–4 weeks. Imaging or biodistribution studies (n = 3–5) were conducted on mice with tumor volumes of 100–200 mm^3. Disseminated tumor models were developed by injecting 4–5 million cells in saline intravenously for MOLP8 and MM1S‐Luc models (n = 4–5). Luciferase expressing MM1S cell line (MM1S‐Luc) was used to monitor cancer cell dissemination in the body. Tumor establishment was confirmed by injecting D‐Luciferin intraperitoneally (150 mg kg^−1) and imaged mice after 10 min in IVIS bioluminescence imaging system. Bone marrow tumors were ready for imaging after 25–30 d of implantation.
(§2) Mice with 100–200 mm^3 tumor volume were used for ex vivo biodistribution studies. For radiotracer pharmacokinetics studies, mice with MOLP8 tumor xenografts received ≈80 µCi (2.96 MBq) [^68Ga]Ga‐AJ206 and were sacrificed at pre‐determined time points (5, 30, 60 and 120 min). Similarly, for dosimetry study, mice with MM1S tumor xenografts received ≈80 µCi (2.96 MBq) of [^68Ga]Ga‐AJ206 and were sacrificed at pre‐determined time points (5, 30, 60, 90 and 120 min). All other mice were injected with ≈50µCi (1.85 MBq) [^68Ga]Ga‐AJ206 and were sacrificed at 60 min. The selected tissues were collected, weighed, counted, and their %ID g^−1 values calculated for biodistribution analysis. The tissues included blood, muscle, tumor, thymus, heart, lung, liver, pancreas, stomach, small intestine, large intestine, spleen, adrenals, kidney, bladder, femur, and brain.

[2] = Ex vivo biodistribution in mice with U266 tumor xenografts; details: both sexes, NSG, mouse, 60 min p.i., U266 xenograft mice; for tissue uptake at 1 h: 50 µCi; for tissue to tissue ratio at 1 h: 50 uCi, total radioactivity
Procedure: as §1, §2

[3] = Ex vivo biodistribution in mice with RPMI tumor xenografts; details: both sexes, NSG, mouse, 60 min p.i., RPMI xenograft mice; for tissue uptake at 1 h: 50 µCi; for tissue to tissue ratio at 1 h: 50 uCi, total radioactivity
Procedure: as §1, §2

[4] = 60 min p.i., listed as [68Ga]Ga-AJ206
[5] = blood, read-out: uptake in blood
[6] = heart, read-out: uptake in heart
[7] = kidney, read-out: uptake in kidney
[8] = liver, read-out: uptake in liver
[9] = muscle, read-out: uptake in muscle
[10] = small intestine, read-out: uptake in small intestine
[11] = spleen, read-out: uptake in spleen
[12] = stomach, read-out: uptake in stomach
[13] = tumor, read-out: uptake in tumor
[14] = tumor/blood, read-out: Tumor/Blood ratio
[15] = tumor/muscle, read-out: Tumor/Muscle ratio

CC[C@H](C)[C@@H]1NC(=O)[C@@H]2CCCN2C(=O)[C@H](Cc2ccccc2)NC(=O)[C@H](CC(=O)O)NC(=O)[C@H](C)NC(=O)[C@@H]2CSCc3cc(cc(c3)CSC[C@H](NC(=O)[C@H](C)NC(=O)CCOCCOCCOCCNC(=O)CN3CCN(CC(=O)O)CCN(CC(=O)O)CC3)C(=O)N[C@@H](C(C)C)C(=O)N3CCC[C@H]3C(=O)N2)CSC[C@@H](C(N)=O)NC(=O)[C@H](Cc2ccc(O)cc2)NC(=O)[C@H](Cc2c[nH]c3ccccc23)NC1=O [[^68Ga]Ga‐AJ206, metal not drawn]
uptake in heart [1, 4]: 0.29±0.03 %ID g^−1 | uptake in kidney [1, 4]: 16.65±2.52 %ID g^−1 | uptake in liver [1, 4]: 1.22±0.09 %ID g^−1 | uptake in lungs [1, 4]: 0.71±0.10 %ID g^−1 | uptake in muscle [1, 4]: 0.14±0.02 %ID g^−1 | uptake in small intestine [1, 4]: 0.65±0.09 %ID g^−1 | uptake in spleen [1, 4]: 0.39±0.03 %ID g^−1 | uptake in stomach [1, 4]: 0.25±0.06 %ID g^−1 | uptake in tumor [1, 4]: 3.76±0.25 %ID g^−1 | uptake in blood ([1]; 120 min p.i.): 0.05 ± 0.01 %ID g^−1 | uptake in femur ([1]; 120 min p.i.): 0.07 ± 0.01 %ID g^−1 | uptake in heart ([1]; 120 min p.i.): 0.05 ± 0.01 %ID g^−1 | uptake in kidney ([1]; 120 min p.i.): 13.75 ± 0.23 %ID g^−1 | uptake in liver ([1]; 120 min p.i.): 0.42 ± 0.01 %ID g^−1 | uptake in lungs ([1]; 120 min p.i.): 0.16 ± 0.03 %ID g^−1 | uptake in muscle ([1]; 120 min p.i.): 0.07 ± 0.04 %ID g^−1 | uptake in small intestine ([1]; 120 min p.i.): 0.18 ± 0.04 %ID g^−1 | uptake in spleen ([1]; 120 min p.i.): 0.17 ± 0.02 %ID g^−1 | uptake in stomach ([1]; 120 min p.i.): 0.03 ± 0.01 %ID g^−1 | uptake in tumor ([1]; 120 min p.i.): 1.46 ± 0.02 %ID g^−1 | blood pool activity cleared ([1]; by 60 min): ~95% | tissue uptake at 1 h [2, 5]: 0.32 ± 0.06 %ID/g | tissue uptake at 1 h ([2]; femur, read-out: uptake in femur): 0.13 ± 0.02 %ID/g | tissue uptake at 1 h [2, 6]: 0.15 ± 0.02 %ID/g | tissue uptake at 1 h [2, 7]: 21.5 ± 2.68 %ID/g | tissue uptake at 1 h [2, 8]: 0.78 ± 0.06 %ID/g | tissue uptake at 1 h ([2]; lung, read-out: uptake in lung): 0.42 ± 0.04 %ID/g | tissue uptake at 1 h [2, 9]: 0.08 ± 0.01 %ID/g | tissue uptake at 1 h [2, 10]: 0.16 ± 0.01 %ID/g | tissue uptake at 1 h [2, 11]: 0.24 ± 0.01 %ID/g | tissue uptake at 1 h [2, 12]: 0.39 ± 0.3 %ID/g | tissue uptake at 1 h [2, 13]: 0.25 ± 0.03 %ID/g | tissue to tissue ratio at 1 h [2, 14]: 0.83 ± 0.09 | tissue to tissue ratio at 1 h [2, 15]: 3.43 ± 0.28 | tissue uptake at 1 h [3, 5]: 0.98 ± 0.48 %ID/g | tissue uptake at 1 h [3, 6]: 0.63 ± 0.21 %ID/g | tissue uptake at 1 h [3, 7]: 17.8 ± 3.48 %ID/g | tissue uptake at 1 h [3, 8]: 1.27 ± 0.3 %ID/g | tissue uptake at 1 h ([3]; lung, read-out: uptake in lung): 1 ± 0.26 %ID/g | tissue uptake at 1 h [3, 9]: 0.49 ± 0.07 %ID/g | tissue uptake at 1 h ([3]; pancreas, read-out: uptake in pancreas): 0.48 ± 0.15 %ID/g | tissue uptake at 1 h [3, 10]: 0.59 ± 0.25 %ID/g | tissue uptake at 1 h [3, 11]: 1.09 ± 0.15 %ID/g | tissue uptake at 1 h [3, 12]: 0.45 ± 0.07 %ID/g | tissue uptake at 1 h [3, 13]: 1.78 ± 0.36 %ID/g | tissue to tissue ratio at 1 h [3, 14]: 2.69 ± 0.65 | tissue to tissue ratio at 1 h [3, 15]: 3.72 ± 0.73
